Bridge positions count the residues as written; N and C are the ends. Ends that are not written are not given here.
What was measured:
Parameters in all cases: species or system HIV
[1] = molecular target: mAb 257D binding to SF162 gp120 protein; assay: Competition peptide ELISA, mAb 257D
[2] = system: mAb 240D binding to MN gp41 protein; assay: Competition peptide ELISA, mAb 240D; details: peptide 4-fold serial dilutions beginning at 20 ug/mL
[3] = system: mAb F240 binding to MN gp41 protein; assay: Competition peptide ELISA, mAb F240; details: peptide 4-fold serial dilutions beginning at 20 ug/mL
[4] = system: mAb 447-52D binding to SF162 gp120 protein; assay: Competition peptide ELISA, mAb 447-52D; details: for competition of peptide for binding of mAb 447-52D to gp120 protein: peptide 4-fold serial dilutions beginning at 20 ug/mL
[5] = competition ELISA, SF162 gp120 coated, unpaired t test, three replicate experiments
[6] = competition ELISA, SF162 gp120 coated

Question: How did the “IC50 of peptide compared with wild-type V3 peptide, mAb 257D” value [1, 5] turn out when EKSIHIGPGRAFY [R304E] was run?
Answer: Its value is “did not yield IC50 values that were significantly different from the wild-type peptide”.

Question: Which results are given for “LLGIWGCSGKLICTTNVP (disulfide 7-13 (inferred)) [wild-type gp41 peptide]”?
Answer: competition of peptide for binding of mAb 240D to gp41 protein [2]: competed for binding; competition of peptide for binding of mAb F240 to gp41 protein [3]: competed for binding

Question: How did the “competition of peptide for binding of mAb 240D to gp41 protein” value [2] turn out when LLGIWGDSGKLICTTNVP [C598D] was run?
Answer: The value was “no longer competes for binding”.

Question: What about the “competition of peptide for binding of mAb F240 to gp41 protein” value [3] of the same sequence?
Answer: Its value is “no longer competes for binding”.

Question: What does the source list for RKSIHIGPGRAFY [wild-type V3 peptide]?
Answer: competition of peptide for binding of mAb 257D to gp120 protein ([1]; peptide 4-fold serial dilutions beginning at 20 ug/mL): competed for binding; competition of peptide for binding of mAb 447-52D to gp120 protein [4]: competed for binding

Question: For RKSIHIGPGRATY [F317T], which “competition of peptide for binding of mAb 447-52D to gp120 protein” value [4] is on record?
Answer: The value was “improved binding above wild-type levels”.

Question: How did the “fold increase in IC50 versus wild-type V3 peptide, mAb 257D” value [1, 6] turn out when RKSIHIGPGWAFY [R315W] was run?
Answer: Its value is 5 fold.

Question: And the “fold increase in IC50 versus wild-type V3 peptide, mAb 447-52D” value [4, 6]?
Answer: Its value is 72 fold.

Question: With RTSIHIGPGRAFY [K305T] as the sequence, how does the “IC50 of peptide compared with wild-type V3 peptide, mAb 447-52D” value [4, 5] read?
Answer: The value was “did not yield IC50 values that were significantly different from the wild-type peptide”.
